In patent US8785631B2, “Oxazolone derivative compounds having a 3-oxa-1-azaspiro[4.5] core” (Seikagaku Corporation, priority 2006, dated 2014):
*1 amine or outer side, *2 acyl side, *3 side chain or, on linkers, in order; H or OH if unused. Where a SMILES comes first, the peptide text is derived from it. [ ]: non-standard residue; d: D form. The star is where a group is joined. Ac6c = NC1(C(=O)O)CCCCC1; Morpholide = C1CN(*)CCO1; Nle = CCCC[C@H](N)C(=O)O; Cbz = O=C(OCc1ccccc1)*; CO = O=C([*:1])[*:2]

Experiments:
Human cathepsin B = target: T1, Human cathepsin B (Homo sapiens, UniProt P07858); test: Measurement of cathepsin B inhibitory activity; assay type: biochemical; conditions: selectivity ratio B/K
T1 construct: purchased Calbiochem Corp
Protocol: (§1) Human cathepsin B (Calbiochem Corp.) was used for measurement. Activity was measured based on decomposition of the fluorescent substrate Z-Arg-Arg-MCA (Peptide Institute, Inc.) in compliance with the method of Barrett, et al.^3). Namely, the decomposition of 20 mM Z-Arg-Arg-MCA by cathepsin B was measured in 100 mM sodium potassium phosphate, 1 mM EDTA, 8 mM cysteine and 0.005% Brij35 at pH 6.0. The reaction was carried out for 30 minutes at 30° C., and stopped by the addition of 2×10^−5 M Calpeptin. After stopping the reaction, fluorescent intensity was measured at an excitation wavelength of 355 nm and measurement wavelength of 460 nm. Inhibition of cathepsin B by the compounds was examined using the reaction system described above.

Human cathepsin L = target: T2, Human cathepsin L (Homo sapiens, UniProt P07711); test: Measurement of cathepsin L inhibitory activity; assay type: biochemical; conditions: selectivity ratio L/K
T2 construct: purchased Calbiochem Corp
T2 sequence (P07711 114-333): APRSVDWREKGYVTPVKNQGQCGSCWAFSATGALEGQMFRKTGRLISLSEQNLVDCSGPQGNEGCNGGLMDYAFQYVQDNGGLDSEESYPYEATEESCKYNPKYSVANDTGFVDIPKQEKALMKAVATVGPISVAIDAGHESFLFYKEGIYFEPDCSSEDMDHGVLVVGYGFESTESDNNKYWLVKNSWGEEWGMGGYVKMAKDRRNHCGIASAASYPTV
Protocol: as §1, with “cathepsin L” for “cathepsin B”, “substrate Z-Phe-Arg-MCA” for “substrate Z-Arg-Arg-MCA”, “[…] Z-Phe-Arg-MCA” for “mM Z-Arg-Arg-MCA”, “sodium acetate, 5” for “sodium potassium phosphate, 1”, “EDTA, 4 mM urea,” for “EDTA,”, “pH 5.5.” for “pH 6.0.”

Structure (SMILES) | B/K (ratio of IC50 cathepsin B to cathepsin K) (Human cathepsin B) | L/K (ratio of IC50 cathepsin L to cathepsin K) (Human cathepsin L)
CC(C)[C@@H](C=O)NC(=O)C1(NC(=O)OCc2ccccc2)CCCCC1 [Reference Example 144, N-[[1-[[(Phenylmethoxy)carbonyl]amino]cyclohexyl]carbonyl]-L-valinal] (Cbz-[Ac6c]-Val-aldehyde) | 230 | 400
CCCC[C@@H](C=O)NC(=O)C1(NC(=O)OCc2ccccc2)CCCCC1 [Reference Example 145, N-[[1-[[(Phenylmethoxy)carbonyl]amino]cyclohexyl]carbonyl]-L-norleucinal] (Cbz-[Ac6c]-[Nle]-aldehyde) | 35 | 50
CC(C)[C@@H](C=O)NC(=O)C1(NC(=O)c2ccco2)CCCCC1 [Reference Example 146, N-[[1-[(2-Furanylcarbonyl)amino]cyclohexyl]carbonyl]-L-valinal] | 87 | 370
CCCC[C@@H](C=O)NC(=O)C1(NC(=O)N2CCOCC2)CCCCC1 [Reference Example 147, N-[[1-[(4-Morpholinylcarbonyl)amino]cyclohexyl]carbonyl]-L-norleucinal] ({Morpholide-CO}-[Ac6c]-[Nle]-aldehyde) | 12 | 21
CC(C)C[C@H](NC(=O)OCc1ccccc1)C(=O)N[C@H](C=O)C(C)C [Reference Example 148, N—[N-[(Phenylmethoxy)carbonyl]-L-leucyl]-L-valinal] (Cbz-Leu-Val-aldehyde) | 58 | 74
CCCC[C@@H](C=O)NC(=O)[C@H](CC(C)C)NC(=O)OCc1ccccc1 [Reference Example 149, N—[N-[(Phenylmethoxy)carbonyl]-L-leucyl]-L-norleucinal] | 11 | 15
CCCC[C@@H](C=O)NC(=O)[C@H](CC(C)C)NC(=O)N1CCOCC1 [Reference Example 150, N—[N-(4-Morpholinylcarbonyl)-L-leucyl]-L-norleucinal] | 4.3 | 7.3
CC(C)C[C@H](NC(=O)c1ccco1)C(=O)N[C@H](C=O)C(C)C [Reference Example 151, N—[N-(2-Furanylcarbonyl)-L-leucyl]-L-valinal] | 30 | 35
